# Data from PubChem BioAssay AID222 (DTP/NCI, 2004).
# Values joined by “and” are separate entries in the source; they are usually repeats but may differ in a detail not shown here. Equal entries are not always repeated. Inconclusive results and toxic doses are left out.
# Tested on: C57BL/6 mice, intracerebral ependymoblastoma, median survival T/C
# Test: NCI In Vivo Anticancer Drug Screen. Data for tumor model Ependymoblastoma (intracerebral) in C57BL/6 mice
# Settings: endpoint: median survival time, higher = longer survival
# Method: The antitumor activity of compounds was measured in mice bearing transplantable tumors. Survival or tumor size were measured and the results are expressed as the measurement made in the treated group (T) divided by the measurement made in the vehicle treated control group (C). The tumor model used in this assay is Ependymoblastoma (intracerebral) in C57BL/6 mice
# [1] = dose: 12.0 mg/kg/injection, schedule: Q01DX005 (ip), vehicle: saline
smiles,measurement,setting,value
OC(CBr)C(O)C(O)C(O)CBr (centres undefined),T/C,"dose: 8.0 mg/kg/injection, schedule: Q01DX005 (ip), vehicle: saline",101 % of control
same,T/C,[1],89 % of control
same,T/C,"dose: 18.0 mg/kg/injection, schedule: Q01DX005 (ip), vehicle: saline",100 % of control
same,T/C,"dose: 27.0 mg/kg/injection, schedule: Q01DX005 (ip), vehicle: saline",95 % of control
same,T/C,"dose: 32.0 mg/kg/injection, schedule: Q01DX001 (ip), vehicle: Klucel (hydroxypropylcellulose) (HPC)",108 % of control
same,T/C,"dose: 32.0 mg/kg/injection, schedule: Q01DX001 (oral), vehicle: Klucel (hydroxypropylcellulose) (HPC)",96 % of control
same,T/C,"dose: 32.0 mg/kg/injection, schedule: Q01DX005 (oral), vehicle: Klucel (hydroxypropylcellulose) (HPC)",97 % of control
same,T/C,"dose: 50.0 mg/kg/injection, schedule: Q01DX005 (ip), vehicle: saline",107 % of control
same,T/C,"dose: 60.0 mg/kg/injection, schedule: Q01DX005 (ip), vehicle: saline",116 % of control
same,T/C,"dose: 64.0 mg/kg/injection, schedule: Q01DX001 (ip), vehicle: Klucel (hydroxypropylcellulose) (HPC)",111 % of control
same,T/C,"dose: 64.0 mg/kg/injection, schedule: Q01DX001 (oral), vehicle: Klucel (hydroxypropylcellulose) (HPC)",99 % of control
same,T/C,"dose: 64.0 mg/kg/injection, schedule: Q01DX005 (oral), vehicle: Klucel (hydroxypropylcellulose) (HPC)",102 % of control
same,T/C,"dose: 100.0 mg/kg/injection, schedule: Q01DX001 (ip), vehicle: Klucel (hydroxypropylcellulose) (HPC)",103 % of control
same,T/C,"dose: 100.0 mg/kg/injection, schedule: Q01DX005 (ip), vehicle: saline",92 % of control and 120 % of control
same,T/C,"dose: 100.0 mg/kg/injection, schedule: Q#A X002 (ip), vehicle: Klucel (hydroxypropylcellulose) (HPC)",102 % of control
same,T/C,"dose: 128.0 mg/kg/injection, schedule: Q01DX001 (ip), vehicle: Klucel (hydroxypropylcellulose) (HPC)",109 % of control
same,T/C,"dose: 128.0 mg/kg/injection, schedule: Q01DX001 (oral), vehicle: Klucel (hydroxypropylcellulose) (HPC)",100 % of control
same,T/C,"dose: 200.0 mg/kg/injection, schedule: Q01DX001 (ip), vehicle: Klucel (hydroxypropylcellulose) (HPC)",102 % of control and 112 % of control and 115 % of control
same,T/C,"dose: 200.0 mg/kg/injection, schedule: Q01DX005 (ip), vehicle: saline",96 % of control and 107 % of control
same,T/C,"dose: 200.0 mg/kg/injection, schedule: Q#A X002 (ip), vehicle: Klucel (hydroxypropylcellulose) (HPC)",102 % of control and 106 % of control
same,T/C,"dose: 256.0 mg/kg/injection, schedule: Q01DX001 (ip), vehicle: Klucel (hydroxypropylcellulose) (HPC)",122 % of control
same,T/C,"dose: 256.0 mg/kg/injection, schedule: Q01DX001 (oral), vehicle: Klucel (hydroxypropylcellulose) (HPC)",101 % of control
same,T/C,"dose: 400.0 mg/kg/injection, schedule: Q01DX001 (ip), vehicle: Klucel (hydroxypropylcellulose) (HPC)",105 % of control and 106 % of control
same,T/C,"dose: 400.0 mg/kg/injection, schedule: Q#A X002 (ip), vehicle: Klucel (hydroxypropylcellulose) (HPC)",111 % of control
same,T/C,"dose: 512.0 mg/kg/injection, schedule: Q01DX001 (ip), vehicle: Klucel (hydroxypropylcellulose) (HPC)",96 % of control
same,T/C,"dose: 512.0 mg/kg/injection, schedule: Q01DX001 (oral), vehicle: Klucel (hydroxypropylcellulose) (HPC)",100 % of control
same,T/C,"dose: 1024.0 mg/kg/injection, schedule: Q01DX001 (ip), vehicle: Klucel (hydroxypropylcellulose) (HPC)",96 % of control
same,T/C,"dose: 1024.0 mg/kg/injection, schedule: Q01DX001 (oral), vehicle: Klucel (hydroxypropylcellulose) (HPC)",100 % of control
CC(=O)OC(C1CO1)C(OC(C)=O)C1CO1 (centres undefined),T/C,"dose: 5.0 mg/kg/injection, schedule: Q01DX005 (ip), vehicle: saline",301 % of control
same,T/C,"dose: 6.0 mg/kg/injection, schedule: Q01DX005 (ip), vehicle: saline",365 % of control
same,T/C,"dose: 7.0 mg/kg/injection, schedule: Q01DX005 (oral), vehicle: saline",253 % of control
same,T/C,"dose: 10.0 mg/kg/injection, schedule: Q01DX005 (ip), vehicle: saline",301 % of control
same,T/C,[1],365 % of control
same,T/C,"dose: 14.0 mg/kg/injection, schedule: Q01DX005 (oral), vehicle: saline",365 % of control
